Assay results published in patent publication US7973034B2, “Amide, aryl sulfonamide, aryl urea, and α,β-diketone derived carboxylesterase inhibitors, and their methods of use” (priority 2003, dated 2011).
Like-named read-outs stand apart in the source and are kept apart here.

Key:
[1] = biological target: T1, rabbit liver carboxylesterase (rCE) (Oryctolagus cuniculus, UniProt P12337); test: biochemical; type: biochemical; details: o-NPA as substrate; Table 5; read-out: Ki rCE
T1 sequence (P12337 19-565): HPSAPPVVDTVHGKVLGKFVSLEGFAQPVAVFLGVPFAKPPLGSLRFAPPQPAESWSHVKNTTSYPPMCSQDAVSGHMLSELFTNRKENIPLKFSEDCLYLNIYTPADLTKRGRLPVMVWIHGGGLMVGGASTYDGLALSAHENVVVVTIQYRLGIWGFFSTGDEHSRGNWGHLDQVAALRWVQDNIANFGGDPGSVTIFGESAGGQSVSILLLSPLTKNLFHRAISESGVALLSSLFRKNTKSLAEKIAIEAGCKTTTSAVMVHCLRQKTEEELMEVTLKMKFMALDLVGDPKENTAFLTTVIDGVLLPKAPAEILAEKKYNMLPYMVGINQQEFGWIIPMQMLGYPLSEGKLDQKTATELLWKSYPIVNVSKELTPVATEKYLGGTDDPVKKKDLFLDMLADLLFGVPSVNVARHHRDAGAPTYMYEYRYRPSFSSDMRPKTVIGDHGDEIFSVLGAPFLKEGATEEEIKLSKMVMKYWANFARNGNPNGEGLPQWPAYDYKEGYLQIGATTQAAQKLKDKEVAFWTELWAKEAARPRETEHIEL

[2] = biological target: T2, human intestinal carboxylesterase in U373MGhiCE cells (Homo sapiens, UniProt O00748); test: Inhibition of intracellular carboxylesterase in U373MGhiCE cells; type: cell-based
T2 construct: expressed in transfected cells; host or cells: U373MG human glioma cells (U373MGhiCE)
T2 sequence (O00748 27-559): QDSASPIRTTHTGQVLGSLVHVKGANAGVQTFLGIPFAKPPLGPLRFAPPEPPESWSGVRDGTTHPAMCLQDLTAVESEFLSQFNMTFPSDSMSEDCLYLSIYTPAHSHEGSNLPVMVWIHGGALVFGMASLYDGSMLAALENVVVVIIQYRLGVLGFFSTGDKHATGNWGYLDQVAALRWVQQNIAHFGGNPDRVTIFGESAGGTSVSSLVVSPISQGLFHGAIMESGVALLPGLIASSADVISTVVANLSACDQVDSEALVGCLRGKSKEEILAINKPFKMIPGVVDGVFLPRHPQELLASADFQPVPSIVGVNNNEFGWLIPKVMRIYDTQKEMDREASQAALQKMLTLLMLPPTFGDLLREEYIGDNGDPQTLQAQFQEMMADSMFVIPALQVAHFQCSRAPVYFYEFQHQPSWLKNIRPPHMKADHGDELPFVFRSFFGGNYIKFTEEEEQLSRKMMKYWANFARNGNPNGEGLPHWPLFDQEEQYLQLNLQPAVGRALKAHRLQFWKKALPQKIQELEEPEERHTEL
Protocol: To monitor the ability of the compounds to cross the cell membrane and inhibit carboxylesterase activity intracellularly, an assay using human tumor cells expressing hiCE was devised. U373MGhiCE (a human glioma cell line transfected with a plasmid expressing hiCE) were plated in T25 flasks and allowed to grow to confluency (approximately 2-5×10^5 cells). Inhibitors were then added at a final concentration of […], and incubation allowed to continue for 1 hour. At this time, the cells were washed extensively with 5 ml of complete media and 2×5 ml of Hanks balanced salt solution, and cell extracts were prepared. Carboxylesterase activity was then determined using o-NPA as a substrate.
Table 8 sets forth the level of intracellular enzyme inhibition following incubation of human glioblastoma tumor cells expressing human intestinal carboxylesterase with 10 μM of each compound identified in Table 3.

hiCE = biological target: T3, hiCE (Homo sapiens, UniProt O00748); test: Inhibition of hiCE-mediated activation of CPT-11 (SN-38 by HPLC); type: biochemical
T3 sequence (O00748 27-559): T2 sequence (O00748 27-559)
Protocol: Since the sulphonamide compounds identified herein are competitive inhibitors of hiCE, their activity is dependant upon the substrate used. To access the ability of these compounds to inhibit the hiCE-mediated activation of CPT-11, Ki values were determined using CPT-11 as the substrate.
CPT-11 concentrations were fixed at […], and inhibitor concentrations varied from 1 nM to 10 μM. Following incubation for an hour at 37° C., the levels of SN-38 in the reaction mixture was determined by High Performance Liquid Chromatography (HPLC).

[3] = biological target: T4, human acetylcholinesterase (hAcChE) (Homo sapiens, UniProt P22303); test: biochemical; type: biochemical; details: acetylthiocholine substrate; Table 5; read-out: Ki hAcChE
T4 construct: purchased Sigma Biochemicals (St. Louis, Mo.)
T4 sequence (P22303 32-614): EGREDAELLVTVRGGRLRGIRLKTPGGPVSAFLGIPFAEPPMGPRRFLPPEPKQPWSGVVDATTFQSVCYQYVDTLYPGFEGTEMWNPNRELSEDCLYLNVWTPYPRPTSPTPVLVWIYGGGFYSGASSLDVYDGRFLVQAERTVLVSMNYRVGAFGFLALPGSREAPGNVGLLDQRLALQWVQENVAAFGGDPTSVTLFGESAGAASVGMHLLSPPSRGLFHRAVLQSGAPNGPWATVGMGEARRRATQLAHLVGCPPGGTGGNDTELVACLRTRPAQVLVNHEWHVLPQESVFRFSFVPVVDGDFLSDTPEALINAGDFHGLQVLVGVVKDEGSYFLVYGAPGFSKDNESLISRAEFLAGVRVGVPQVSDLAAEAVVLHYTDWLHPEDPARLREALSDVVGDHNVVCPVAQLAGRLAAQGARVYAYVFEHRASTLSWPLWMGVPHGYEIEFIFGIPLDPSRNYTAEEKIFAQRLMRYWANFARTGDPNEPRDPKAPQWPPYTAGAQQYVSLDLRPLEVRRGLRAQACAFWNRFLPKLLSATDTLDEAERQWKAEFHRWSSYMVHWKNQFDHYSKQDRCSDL
Protocol: Data was transferred to GraphPad Prism software, and Ki values were calculated as described in the Example above.

[4] = biological target: human butyrylcholinesterase (hBuChE) (Homo sapiens, UniProt P06276); test: biochemical
human butyrylcholinesterase (hBuChE), sequence (P06276 29-602): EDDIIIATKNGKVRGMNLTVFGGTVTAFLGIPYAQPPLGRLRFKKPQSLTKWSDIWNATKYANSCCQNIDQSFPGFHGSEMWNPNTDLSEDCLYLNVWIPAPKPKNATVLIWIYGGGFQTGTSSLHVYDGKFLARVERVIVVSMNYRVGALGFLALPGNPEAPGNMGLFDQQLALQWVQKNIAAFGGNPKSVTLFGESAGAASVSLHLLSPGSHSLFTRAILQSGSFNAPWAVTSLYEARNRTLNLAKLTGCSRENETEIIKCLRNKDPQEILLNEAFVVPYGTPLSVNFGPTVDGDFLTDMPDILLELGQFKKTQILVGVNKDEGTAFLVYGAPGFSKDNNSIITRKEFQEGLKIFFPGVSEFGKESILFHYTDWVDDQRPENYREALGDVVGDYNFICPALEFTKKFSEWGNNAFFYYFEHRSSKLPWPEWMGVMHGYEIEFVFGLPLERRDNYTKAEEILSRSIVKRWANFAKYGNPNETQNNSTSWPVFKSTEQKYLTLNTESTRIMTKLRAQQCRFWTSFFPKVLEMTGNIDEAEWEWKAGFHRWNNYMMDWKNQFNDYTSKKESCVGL

[5] = biological target: T5, human liver carboxylesterase (hCE1) (Homo sapiens, UniProt P23141); test: biochemical; type: biochemical; details: o-NPA as substrate; Table 5; read-out: Ki hCE1
T5 sequence (P23141 18-567): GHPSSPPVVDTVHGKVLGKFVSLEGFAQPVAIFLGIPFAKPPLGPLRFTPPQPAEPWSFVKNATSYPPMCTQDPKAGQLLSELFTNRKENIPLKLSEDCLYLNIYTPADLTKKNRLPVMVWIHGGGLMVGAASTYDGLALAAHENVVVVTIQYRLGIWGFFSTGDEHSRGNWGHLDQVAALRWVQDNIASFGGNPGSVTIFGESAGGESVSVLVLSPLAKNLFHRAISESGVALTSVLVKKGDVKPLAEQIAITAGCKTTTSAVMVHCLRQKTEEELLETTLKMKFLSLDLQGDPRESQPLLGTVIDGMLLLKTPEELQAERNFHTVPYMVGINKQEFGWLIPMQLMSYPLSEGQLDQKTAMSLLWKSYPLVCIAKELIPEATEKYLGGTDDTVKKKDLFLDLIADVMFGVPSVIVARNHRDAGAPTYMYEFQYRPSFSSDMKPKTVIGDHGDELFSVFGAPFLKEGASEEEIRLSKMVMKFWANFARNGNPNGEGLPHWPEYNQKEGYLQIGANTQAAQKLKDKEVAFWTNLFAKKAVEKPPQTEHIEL

[6] = biological target: T6, human small intestine carboxylesterase (hiCE) (Homo sapiens, UniProt O00748); test: biochemical; type: biochemical; details: for Ki / Ki (hCE1)/Ki (hiCE): o-NPA as substrate; for Ki: Table 5, read-out: Ki hiCE; for Ki (hCE1)/Ki (hiCE): selectivity ratio
T6 sequence (O00748 27-559): T2 sequence (O00748 27-559)

[7] = mouse plasma, within 1 hour of incubation; cited from earlier work
[8] = human plasma in vitro; cited from earlier work
[9] = rat plasma, within 1 hour of incubation; cited from earlier work
[10] = tested on: chicken liver carboxylesterase; details: cited from earlier work
carboxylesterases = test: General carboxylesterase inhibition; type: biochemical
Protocol: Carboxylesterase (CE) inhibition was determined by a spectroscopic assay using o-nitrophenyl acetate (o-NPA) as a substrate. Recombinant CEs produced from expression in Spodoptera frugiperda Sf9 insect cells via baculovirus were purified from serum-free culture media for the enzyme inhibition studies. Enzymes were incubated in 200 μl of 50 mM Hepes (pH 7.4) containing 3 mM o-NPA. Conversion of the o-NPA to nitrophenol was monitored by measuring the change in the absorbance at 420 nm. Absorbance readings were taken every 15 seconds for 2 minutes, and data transferred to a computer data spreadsheet. […] The final DMSO concentration was always 1% or less. […] The above procedure was then repeated using the same assay, with inhibitor concentrations ranging from 1 nM to 100 μM. Results were then transferred to Prism software (GraphPad Software, Inc., San Diego, Calif.) and Ki values determined using sigmoidal curve fits of the data. Routinely, all analyses were performed in duplicate, and Ki values determined using at least 8 inhibitor concentrations.

[11] = CPT-11 as substrate (100 μm), 1 hour at 37° C., read-out: Ki hiCE

Compound | Ki [1] | inhibition at 10 µM [2] | Ki (hiCE; [11]) | Ki [3] | Ki [4] | Ki [5] | change in apparent Vmax of hiCE ([6]; 149 nM or 447 nM inhibitor) | Ki [6] | Ki (hCE1)/Ki (hiCE) [6] | Ki (hiCE) | drug converted to SN-38 [7] | level of activation of CPT-11 by plasma [8] | drug converted to SN-38 [9] | inhibition of chicken liver carboxylesterase [10] | found to be general carboxylesterase inhibitors (carboxylesterases)
O=S(=O)(Nc1c(Cl)c(Cl)c(NS(=O)(=O)c2ccccc2)c(Cl)c1Cl)c1ccccc1 [Compound 44, N-{2,3,5,6-tetrachloro-4-[(phenylsulfonyl)amino]phenyl}benzene sulfonamide] | > 100 µM | 0.6% | > 100 µM | > 100 µM | > 100 µM | > 100 µM | no change | 0.451 ± 0.039 µM | >220 |  |  |  |  |  | 
O=S(=O)(Nc1c(F)c(F)c(NS(=O)(=O)c2ccc(Cl)cc2)c(F)c1F)c1ccc(Cl)cc1 [Compound 59] | 0.522 ± 0.144 µM | 8.3% |  | > 100 µM | > 100 µM | > 100 µM |  | 0.0415 ± 0.0065 µM | >2,400 | 0.11 ± 0.023 µM |  |  |  |  | 
CCc1c2c(nc3ccc(OC(=O)N4CCC(N5CCCCC5)CC4)cc13)-c1cc3c(c(=O)n1C2)COC(=O)[C@]3(O)CC [CPT-11, 7-ethyl-10-[4-(1-piperidino)-1-piperidino]carbonyloxycamptothecin] |  |  |  |  |  |  |  |  |  |  | greater than 50% | very low | greater than 50% |  | 
O=S(=O)(Nc1ccc(NS(=O)(=O)c2ccc(Cl)cc2)c2ccccc12)c1ccc(Cl)cc1 [Compound 47, 4-chloro-N-(4-{[(4-chlorophenyl)sulfonyl]amino}-1-naphthyl)benzenesulfonamide] | > 100 µM | 9.2% | > 100 µM | > 100 µM | > 100 µM | > 100 µM |  | 0.194 ± 0.023 µM | >500 |  |  |  |  |  | 
Cc1cc(NS(=O)(=O)c2ccccc2)ccc1NS(=O)(=O)c1ccccc1 [Compound 49, N-{2-methyl-4-[(phenylsulfonyl)amino]phenyl}benzene sulfonamide] | 3.23 µM | 7.6% |  | > 100 µM | > 100 µM | > 100 µM |  | 0.365 ± 0.087 µM | >250 | 0.238 ± 0.029 µM |  |  |  |  | 
O=S(=O)(Nc1ccc(Oc2ccccc2)cc1)c1ccc(Br)cc1 [Compound 46, 4-bromo-N-(4-phenoxyphenyl)benzenesulfonamide] | 0.319 ± 0.037 µM | 0% | > 100 µM | > 100 µM | > 100 µM | > 100 µM |  | 0.165 ± 0.033 µM | >600 |  |  |  |  |  | 
O=S(=O)(Nc1ccc(NS(=O)(=O)c2ccc(Cl)cc2)cc1)c1ccc(Cl)cc1 [Compound 45, 4-chloro-N-(4-{[(4-chlorophenyl)sulfonyl]amino}phenyl) benzenesulfonamide] | 1.2 µM | 7.5% |  | > 100 µM | > 100 µM | 13.7 µM |  | 0.0533 ± 0.0055 µM | >250 | 0.141 ± 0.064 µM |  |  |  |  | 
CCOc1ccc(NS(=O)(=O)c2ccc(Cl)cc2)cc1 [Compound 52, 4-chloro-N-(4-ethoxyphenyl)benzenesulfonamide] | 2 µM | 9.6% |  | > 100 µM | > 100 µM | > 100 µM |  | 1.31 µM | >75 | 3.22 µM |  |  |  |  | 
O=C(C(=O)c1ccccc1)c1ccccc1 [Compound 2, Diphenylethane-1,2-dione] |  |  |  |  |  |  |  |  |  |  |  |  |  | inhibition | general carboxylesterase inhibitors
